Measured values taken from patent US10000471B2, “Pyrazole P38 map kinase inhibitors” (Respivert Limited, priority 2010, dated 2018).

Columns and labels:
[1] = test system: TNFα release in THP-1 cells; experiment: LPS-induced TNFα release in THP-1 cells; assay type: cell-based, human; details: Homo sapiens
How it was run: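 IC50 derived from concentration-response of TNFα inhibition relative to vehicle, with TNFα quantified by sandwich ELISA in supernatants. THP-1 cells were challenged 4 hr with LPS (E. coli, 3 μg/mL).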

[2] = test system: ICAM-1 induction in BEAS2B cells; experiment: Poly I:C-induced ICAM-1 induction in BEAS2B cells; assay type: cell-based, human; details: Homo sapiens, BEAS-2B, read-out: PolyIC/ICAM1 IC50 BEAS2B
How it was run: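 IC50 reflects inhibition of cell-surface ICAM-1 relative to vehicle, read by ELISA (OD450 against 655 nm) and divided by crystal violet OD595 for cell number. Readings were taken 18 hr after transfection of 1 μg/mL poly I:C into BEAS2B cells. Compound was added 2 hr before stimulation.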

[3] = test system: TNFα release in d-U937 cells; experiment: LPS-induced TNFα release in d-U937 cells; assay type: cell-based, human; details: Homo sapiens, dU937, relative to 10 μg/mL BIRB796, read-out: LPS/TNFα REC50 d-U937
How it was run: (§1)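 Sandwich ELISA of TNFα and IL-8 in supernatants after 4 hr 0.1 μg/mL LPS (E. coli O111:B4) challenge of U937 cells differentiated with PMA 100 ng/ml for 48–72 hr, compound added 2 hr beforehand. IL-8: IC50 from inhibition versus vehicle; TNFα: REC50 from inhibition as percentage of 10 μg/mL BIRB796 effect.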

[4] = test system: Differentiated U937 cells; experiment: Cell viability MTT assay; assay type: cell-based, human; details: negative = apparent increase in viability; for MTT Assay (Viability) 4 h d-U937, percentage loss of cell viability: 4 hr in 5% FCS; for MTT Assay (Viability) 24 h d-U937, percentage loss of cell viability: 24 h in 10% FCS
How it was run: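 Differentiated U937 cells pre-incubated with compound either 4 hr in 5% FCS or 24 h in 10% FCS, then 1 hr MTT. Formazan dissolved in DMSO, absorbance at 550 nm. Percentage viability loss relative to 0.5% DMSO vehicle; apparent increases appear as negative percentages.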

[5] = target: T1, p38 MAPKγ (MAPK12) (Homo sapiens, UniProt P53778); experiment: Enzyme inhibition assay (FRET, Z-LYTE), p38 MAPKγ; assay type: biochemical; details: read-out: Enzyme Inhibition IC50 p38γ
T1 construct: purchased Invitrogen
T1 sequence (P53778 1-367): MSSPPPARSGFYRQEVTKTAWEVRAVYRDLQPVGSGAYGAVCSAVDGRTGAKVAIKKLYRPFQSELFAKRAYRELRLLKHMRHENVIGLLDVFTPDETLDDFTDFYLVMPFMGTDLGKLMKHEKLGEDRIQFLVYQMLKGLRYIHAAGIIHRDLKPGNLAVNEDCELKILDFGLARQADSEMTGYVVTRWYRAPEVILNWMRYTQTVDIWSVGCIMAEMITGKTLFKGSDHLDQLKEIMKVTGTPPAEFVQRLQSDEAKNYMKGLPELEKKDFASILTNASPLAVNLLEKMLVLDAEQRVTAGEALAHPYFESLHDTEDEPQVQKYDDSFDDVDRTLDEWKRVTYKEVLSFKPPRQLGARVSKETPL
How it was run: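 Z-LYTE FRET readout: after 1 h kinase reaction (ATP 100 μM, peptide 2 μM) following 2 h RT enzyme–compound preincubation in HEPES, protease cleaves only unphosphorylated peptide. Percent inhibition from donor/acceptor ratio relative to control; IC50 fitted from the curve.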

[6] = target: T2, p38 MAPKα isoform (MAPK14) (Homo sapiens, UniProt Q16539); experiment: Enzyme inhibition assay (FRET, Z-LYTE), p38 MAPKα via MAPKAP-K2 activation; assay type: biochemical; details: read-out: Enzyme Inhibition IC50 p38α
T2 construct: purchased Invitrogen
How it was run: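 Z-LYTE FRET format, in which protease cleaves only non-phosphorylated peptide, read after 1 h development. Compound was mixed with p38 MAPKα for 2 h at RT, and inhibition was gauged from MAPKAP-K2 activation/phosphorylation rather than directly. Percent inhibition against an uninhibited control was fitted to give IC50.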

[7] = test system: IL-8 release in d-U937 cells; experiment: LPS-induced IL-8 release in d-U937 cells; assay type: cell-based, human; details: Homo sapiens, dU937
How it was run: as §1

T2 sequence (Q16539 whole entry, canonical isoform): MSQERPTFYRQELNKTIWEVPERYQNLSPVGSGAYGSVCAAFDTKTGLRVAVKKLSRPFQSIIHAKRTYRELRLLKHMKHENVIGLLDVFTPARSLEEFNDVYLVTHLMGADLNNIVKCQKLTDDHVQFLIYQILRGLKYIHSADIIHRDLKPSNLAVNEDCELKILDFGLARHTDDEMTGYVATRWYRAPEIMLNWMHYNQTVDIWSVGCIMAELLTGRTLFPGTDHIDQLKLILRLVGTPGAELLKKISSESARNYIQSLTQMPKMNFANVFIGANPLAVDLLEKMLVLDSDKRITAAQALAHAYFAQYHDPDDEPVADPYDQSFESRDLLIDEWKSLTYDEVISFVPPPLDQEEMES

## CN(C)CC(=O)Nc1cc(Oc2ccc(NC(=O)Nc3cc(C(C)(C)C)nn3-c3ccc(CO)cc3)c(Cl)c2Cl)ccn1 [Example 46, N-(4-(4-(3-(3-tert-butyl-1-(4-hydroxymethylphenyl)-1H-pyrazol-5-yl)ureido)-2,3-dichlorophenoxy)pyridin-2-yl)-2-(dimethylamino) acetamide]
[1]
  IC50: 0.3 nM
[2]
  IC50: 2.4 nM
[3]
  EC50: 0.9 nM
[4]
  MTT Assay (Viability) 4 h d-U937, percentage loss of cell viability: −12.6%
  MTT Assay (Viability) 24 h d-U937, percentage loss of cell viability: 82.7%
[5]
  IC50: 38.7 nM
[6]
  IC50: 20.9 nM
[7]
  IC50: 1.1 nM

## CNC(=O)Nc1nccc(Oc2ccc(NC(=O)Nc3cc(C(C)(C)C)nn3-c3ccc(OC)cc3)c(Cl)c2Cl)n1 [Example 98, 1-(3-tert-butyl-1-(4-methoxyphenyl)-1H-pyrazol-5-yl)-3-(2,3-dichloro-4-(2-(3-methylureido)pyrimidin-4-yloxy)phenyl) urea]
[1]
  IC50: 1.4 nM
[2]
  IC50: 4.1 nM
[3]
  EC50: 1.9 nM
[4]
  MTT Assay (Viability) 4 h d-U937, percentage loss of cell viability: −25.9%
  MTT Assay (Viability) 24 h d-U937, percentage loss of cell viability: −29.3%
[5]
  IC50: 101 nM
[6]
  IC50: 32.5 nM
[7]
  IC50: 2.7 nM

## COCC(=O)Nc1cc(Oc2ccc(NC(=O)Nc3cc(C(C)(C)C)nn3-c3ccc(CO)cc3)c(Cl)c2Cl)ncn1 [Example 93, N-(6-(4-(3-(3-tert-butyl-1-(4-hydroxymethylphenyl)-1H-pyrazol-5-yl)ureido)-2,3-dichlorophenoxy)pyrimidin-4-yl)-2-methoxyacetamide]
[1]
  IC50: 0.8 nM
[2]
  IC50: 0.5 nM
[3]
  EC50: 1.3 nM
[4]
  MTT Assay (Viability) 4 h d-U937, percentage loss of cell viability: −1.4%
  MTT Assay (Viability) 24 h d-U937, percentage loss of cell viability: 91.5%
[5]
  IC50: 160 nM
[6]
  IC50: 8.9 nM
[7]
  IC50: 19.2 nM

## Cc1ccc(-n2nc(C(C)(C)C)cc2NC(=O)Nc2ccc(Oc3ccnc(NC(=O)N(C)C)c3)c(Cl)c2Cl)cc1 [Example 63]
[1]
  IC50: 0.5 nM
[2]
  IC50: 3 nM
[3]
  EC50: 0.3 nM
[4]
  MTT Assay (Viability) 4 h d-U937, percentage loss of cell viability: −29.7%
  MTT Assay (Viability) 24 h d-U937, percentage loss of cell viability: 51.6%
[5]
  IC50: 140 nM
[6]
  IC50: 28.9 nM
[7]
  IC50: 11.4 nM

## COCC(=O)Nc1cc(Oc2ccc(NC(=O)Nc3cc(C(C)(C)C)nn3-c3ccc(CO)cc3)c(Cl)c2Cl)ccn1 [Example 49, N-(4-(4-(3-(3-tert-butyl-1-(4-hydroxymethylphenyl)-1H-pyrazol-5-yl)ureido)-2,3-dichlorophenoxy)pyridin-2-yl)-2-methoxyacetamide]
[1]
  IC50: 1.2 nM
[2]
  IC50: 1.5 nM
[3]
  EC50: 0.7 nM
[4]
  MTT Assay (Viability) 4 h d-U937, percentage loss of cell viability: −4.8%
  MTT Assay (Viability) 24 h d-U937, percentage loss of cell viability: 92.2%
[5]
  IC50: 36 nM
[6]
  IC50: 16.5 nM
[7]
  IC50: 2.2 nM

## COc1ccc(-n2nc(C(C)(C)C)cc2NC(=O)Nc2ccc(Oc3ccnc(NC(=O)N4CC[C@H](N(C)C)C4)c3)c(Cl)c2Cl)cc1 [Example 82, (S)-N-(4-(4-(3-(3-tert-butyl-1-(4-methoxyphenyl)-1H-pyrazol-5-yl)ureido)-2,3-dichlorophenoxy)pyridin-2-yl)-3-(dimethylamino) pyrrolidine-1-carboxamide]
[1]
  IC50: 0.3 nM
[2]
  IC50: 2.1 nM
[3]
  EC50: 1.8 nM
[4]
  MTT Assay (Viability) 4 h d-U937, percentage loss of cell viability: −13.2%
  MTT Assay (Viability) 24 h d-U937, percentage loss of cell viability: 20.5%
[5]
  IC50: 33.6 nM
[6]
  IC50: 14.1 nM
[7]
  IC50: 4.6 nM

## CNC(=O)Nc1cc(Oc2ccc(NC(=O)Nc3cc(C(C)(C)C)nn3-c3ccc(OC)cc3)c(Cl)c2Cl)ncn1 [Example 97, 1-(3-tert-butyl-1-(4-methoxyphenyl)-1H-pyrazol-5-yl)-3-(2,3-dichloro-4-(6-(3-methylureido)pyrimidin-4-yloxy)phenyl) urea]
[1]
  IC50: 1.4 nM
[2]
  IC50: 1.2 nM
[3]
  EC50: 0.1 nM
[4]
  MTT Assay (Viability) 4 h d-U937, percentage loss of cell viability: −27.2%
  MTT Assay (Viability) 24 h d-U937, percentage loss of cell viability: 32.9%
[5]
  IC50: 203 nM
[6]
  IC50: 33.2 nM
[7]
  IC50: 0.1 nM

## COCC(=O)Nc1cc(Oc2ccc(NC(=O)Nc3cc(C(C)(C)C)nn3-c3ccc(C)cc3)c(Cl)c2C(F)(F)F)ccn1 [Example 37, N-(4-(4-(3-(3-tert-butyl-1-p-tolyl-1H-pyrazol-5-yl)ureido)-3-chloro-2-trifluoromethylphenoxy)pyridin-2-yl)-2-methoxyacetamide]
[1]
  IC50: 1.8 nM
[2]
  IC50: 4 nM
[3]
  EC50: 1.9 nM
[4]
  MTT Assay (Viability) 4 h d-U937, percentage loss of cell viability: −0.4%
  MTT Assay (Viability) 24 h d-U937, percentage loss of cell viability: 24.7%
[5]
  IC50: 159 nM
[6]
  IC50: 102 nM
[7]
  IC50: 6.9 nM

## CN(C)[C@@H]1CCN(C(=O)Nc2cc(Oc3ccc(NC(=O)Nc4cc(C(C)(C)C)nn4-c4ccc(O)cc4)c(Cl)c3Cl)ccn2)C1 [Example 11, (R)—N-(4-(4-(3-(3-tert-Butyl-1-(4-hydroxyphenyl)-1H-pyrazol-5-yl)ureido)-2,3-dichlorophenoxy)pyridin-2-yl)-3-(dimethylamino)pyrrolidine-1-carboxamide]
[1]
  IC50: 0.7 nM
[2]
  IC50: 1.8 nM
[3]
  EC50: 0.8 nM
[4]
  MTT Assay (Viability) 4 h d-U937, percentage loss of cell viability: −1.3%
  MTT Assay (Viability) 24 h d-U937, percentage loss of cell viability: 42.0%
[5]
  IC50: 38.7 nM
[6]
  IC50: 15.9 nM
[7]
  IC50: 4.5 nM

## COCC(=O)Nc1cc(Oc2ccc(NC(=O)Nc3cc(C(C)(C)C)nn3-c3ccc(C)cc3)c(Cl)c2Cl)ncn1 [Example 89, N-(6-(4-(3-(3-tert-butyl-1-p-tolyl-1H-pyrazol-5-yl)ureido)-2,3-dichlorophenoxy)pyrimidin-4-yl)-2-methoxyacetamide]
[1]
  IC50: 1.7 nM
[2]
  IC50: 1.8 nM
[3]
  EC50: 0.3 nM
[4]
  MTT Assay (Viability) 4 h d-U937, percentage loss of cell viability: −49.9%
  MTT Assay (Viability) 24 h d-U937, percentage loss of cell viability: −7.5%
[5]
  IC50: 175 nM
[6]
  IC50: 58.8 nM
[7]
  IC50: 13.4 nM

## CC(C)(C)c1cc(NC(=O)Nc2ccc(Oc3ccnc(NC(=O)NCCN4CCOCC4)c3)c(Cl)c2Cl)n(-c2ccc(CO)cc2)n1 [Example 71, 1-(4-(4-(3-(3-tert-butyl-1-(4-hydroxymethylphenyl)-1H-pyrazol-5-yl)ureido)-2,3-dichlorophenoxy)pyridin-2-yl)-3-(2-morpholinoethyl) urea]
[1]
  IC50: 0.7 nM
[2]
  IC50: 1.9 nM
[3]
  EC50: 1.1 nM
[4]
  MTT Assay (Viability) 4 h d-U937, percentage loss of cell viability: −20.5%
  MTT Assay (Viability) 24 h d-U937, percentage loss of cell viability: 84.3%
[5]
  IC50: 60.4 nM
[6]
  IC50: 19.4 nM
[7]
  IC50: 1.4 nM

## COc1ccc(-n2nc(C(C)(C)C)cc2NC(=O)Nc2ccc(Oc3ccnc(NC(=O)N4CCC(O)C4)c3)c(Cl)c2Cl)cc1 (centres unmarked) [Example 85, N-(4-(4-(3-(3-tert-butyl-1-(4-methoxyphenyl)-1H-pyrazol-5-yl)ureido)-2,3-dichlorophenoxy)pyridin-2-yl)-3-hydroxypyrrolidine-1-carboxamide]
[1]
  IC50: 0.3 nM
[2]
  IC50: 0.6 nM
[3]
  EC50: 1.1 nM
[4]
  MTT Assay (Viability) 4 h d-U937, percentage loss of cell viability: −25.1%
  MTT Assay (Viability) 24 h d-U937, percentage loss of cell viability: 58.6%
[5]
  IC50: 27.2 nM
[6]
  IC50: 12.8 nM
[7]
  IC50: 5.4 nM

## COCC(=O)Nc1cc(Oc2ccc(NC(=O)Nc3cc(C(C)(C)C)nn3-c3ccc(C)cc3)c(Br)c2)ccn1 [Example 32, N-(4-(3-bromo-4-(3-(3-tert-butyl-1-p-tolyl-1H-pyrazol-5-yl)ureido)phenoxy)pyridin-2-yl)-2-methoxyacetamide]
[1]
  IC50: 1.3 nM
[2]
  IC50: 6.5 nM
[3]
  EC50: 0.6 nM
[4]
  MTT Assay (Viability) 4 h d-U937, percentage loss of cell viability: 17.2%
  MTT Assay (Viability) 24 h d-U937, percentage loss of cell viability: 65.3%
[5]
  IC50: 148 nM
[6]
  IC50: 42.9 nM
[7]
  IC50: 29.1 nM
